Like-named read-outs stand apart in the source and are kept apart here.
Target: T1, recombinant HIV-1 protease (Human immunodeficiency virus type 1 group M subtype B, UniProt P04585)
T1 construct: recombinant HIV-1 protease (final concentration 2.18 nM) purchased from Bachem Bioscience; purchased Bachem Bioscience
Assay: Enzymatic fluorometric (FRET) assay for determining the inhibition constant (Ki) against HIV protease
Assay type: biochemical
Description: An Enzymatic assay for determining the inhibition constant (Ki) of synthetic compounds targeting the HIV protease may be carried out as follows: This is a fluorometric assay based on the cleavage by protease of a substrate carrying a donor group (EDANS) and an acceptor group (DABCYL) on each side of the cleavage site, interacting together through fluorescence resonance energy transfer (FRET). Cleavage of the substrate by protease stops energy exchange between the two groups, resulting in a time-dependent increase in fluorescence intensity that is linearly related to the extent of substrate hydrolysis.
The enzymatic assay is done at 31° C. in white 96-well fluorescence microplates, in a total volume of 200 μL per well. The apparatus used for analysis is a FL600 fluorescence microplate reader (Biotek Instruments). […] Excitation of the fluorophore is done at 340 nm and emission at 485 nm is recorded continuously during the reaction, allowing determination of the enzyme's initial velocity (v0). At the end of the 4 min incubation, the potential inhibitor at a defined concentration in a volume of 4 μL is added to the reaction, and fluorescence readings are taken for another 4 min, allowing determination of enzyme velocity (vi) in the presence of the inhibitory compound. Several concentrations of the putative inhibitors are tested in the assay. After calculation of v0 and vi, the inhibition constant (Ki) of the compound is determined using the equation of Henderson: [formula]
and [I]=inhibitor concentration, [S]=substrate concentration,
Km=Michaelis-Menten constant, Kiapp=apparent Ki
Graphs are traced and the Ki determined using GraphPad Prism software v. 3.0.

[1] = fluorometric FRET assay, recombinant HIV-1 protease, pH 4.7, 31° C., read-out: Ki
[2] = fluorometric FRET assay, 31° C., pH 4.7, recombinant HIV-1 protease 2.18 nM, substrate 10 μM, read-out: Ki

Row | Molecule | Ki [1] | other results
1 | COc1ccccc1/C=C\C(=O)NCCCC[C@@H](C(=O)O)N(CC(C)C)S(=O)(=O)c1ccc([N+](=O)[O-])cc1 [Compound 186, Nα-Isobutyl-Nα-(4-nitrobenzenesulfonyl)-Nε-(cis-2-methoxycinnamoyl)-L-lysine] | 39.8 nM | 
2 | CC(C)CN([C@@H](CCCCNC(=O)COc1ccccc1)C(=O)O)S(=O)(=O)c1ccc(N)cc1 [Compound 192, Nα-Isobutyl-Nα-(4-aminobenzenesulfonyl)-Nε-phenoxyacetyl-L-lysine] |  | Ki [2]: 8.2 nM
3 | Cc1ccc(S(=O)(=O)N(CC(C)C)C(CCCCNC(=O)OCC2c3ccccc3-c3ccccc32)C(N)=O)cc1 [Compound 125, (2R,2S)-N-Isobutyl-N-(4-methylbenzenesulfonylamino)-6-(9-fluorenylmethoxycarboxylamino)-1-hexanamide] | 107 nM | 
4 | Cc1ccc(S(=O)(=O)N(CC(C)C)[C@@H](CCCCNC(=O)CCc2ccc(O)cc2)C(=O)O)cc1 [Compound 126, Nα-Isobutyl-Nα-(4-methylbenzenesulfonyl)-Nε-(4-hydroxydihydrocinnamoyl)-L-lysine] | > 300 nM | 
5 | Cc1ccc(S(=O)(=O)N(CC(C)C)C(CCCCNC(=O)CC2c3ccccc3-c3ccccc32)C(=O)O)cc1 (stereo not drawn) [Compound 84] | 89.7 nM | 
6 | O=C(CC1c2ccccc2-c2ccccc21)N[C@@H](CCCCNS(=O)(=O)c1ccc(Br)cc1)C(=O)O [Compound 30, Nα-(9-Fluorenemethylcarbonyl)-Nε-(4-bromobenzenesulfonyl)-L-lysine] | 71000 nM | 
7 | COc1ccc(S(=O)(=O)N(CC(C)C)[C@@H](CCCCNC(=O)OCC2c3ccccc3-c3ccccc32)C(=O)O)cc1 [Compound 7, Nα-Isobutyl-Nα-(4-methoxybenzenesulfonyl)-Nε-(9-fluorenylmethoxycarbonyl)-L-lysine] | 10.6 nM | 
8 | Nα-(4-Bromobenzenesulfonyl)-Nε-(9-fluorenylmethoxycarbonyl)-L-lysine [Compound 66] | > 6500 nM | 
9 | O=C(N[C@@H](CCCCNS(=O)(=O)c1cccc(C(F)(F)F)c1)C(=O)O)OCC1c2ccccc2-c2ccccc21 [Compound 34, Nε-(3-Trifluoromethylbenzenesulfonyl)-Nα-(9-fluorenylmethoxycarbonyl)-L-lysine] | 22000 nM | 
10 | CC(C)CN([C@@H](CCCCNC(=O)OCC1c2ccccc2-c2ccccc21)C(=O)O)S(=O)(=O)c1ccc(Br)cc1 [Compound 4, Nα-Isobutyl-Nα-(4-bromobenzenesulfonyl)-Nε-(9-fluorenylmethoxycarbonyl)-L-lysine] | 11.4 nM | 
11 | O=C(NCCCC[C@H](NC(=O)OCC1c2ccccc2-c2ccccc21)C(=O)O)OCC1c2ccccc2-c2ccccc21 [Compound 71, Nα,Nε-di-(9-Fluorenylmethoxycarbonyl)-L-lysine] |  | Ki (Ki (nM)): 44800 nM
12 | O=C(O)[C@H](CCCCN(Cc1ccc(F)cc1)S(=O)(=O)c1ccc(Br)cc1)NS(=O)(=O)c1ccc(Br)cc1 [Compound 60, Nα,Nε-di-(4-bromobenzenesulfonyl)-Nε-(4-fluorobenzyl)-L-lysine] | > 50000 nM | 
13 | O=C(N[C@@H](CCCCNS(=O)(=O)c1cccc2cccnc12)C(=O)O)OCC1c2ccccc2-c2ccccc21 [Compound 28, Nε-(8-Quinolinesulfonyl)-Nα-(9-fluorenylmethoxycarbonyl)-L-lysine] | 15000 nM | 
14 | COc1ccc(C=CC(=O)NCCCC[C@@H](C(=O)O)N(CC(C)C)S(=O)(=O)c2ccc([N+](=O)[O-])cc2)cc1 [Compound 113, Nα-Isobutyl-Nα-(4-nitrobenzenesulfonyl)-Nε-(4-methoxycinnamoyl)-L-lysine] | > 300 nM | 
15 | O=C(O)[C@H](CCCCNS(=O)(=O)c1ccc(Br)cc1)NS(=O)(=O)c1ccc(Br)cc1 [Compound 17, Nα,Nε-di-(4-Bromobenzenesulfonyl)-L-lysine] | 7700 nM | 
16 | COc1cccc(CCC(=O)NCCCC[C@@H](C(=O)O)N(CC(C)C)S(=O)(=O)c2ccc(C)cc2)c1OC [Compound 201, Nα-Isobutyl-Nα-(4-methylbenzenesulfonyl)-Nε-(2,3-dimethoxydihydrocinnamoyl)-L-lysine] |  | Ki [2]: 15 nM
17 | Nc1ccc(S(=O)(=O)NCCC[C@H](NC(=O)OCC2c3ccccc3-c3ccccc32)C(=O)O)cc1 [Compound 69, Nδ-(4-Aminobenzenesulfonyl)-Nα-(9-fluorenylmethoxycarbonyl)-L-ornithine] | 23800 nM | 
18 | Cc1ccc(S(=O)(=O)N(CC(C)C)[C@@H](CCCCNC(=O)OCc2ccccc2)C(=O)OCc2ccccc2)cc1 [Compound 75, Nα-isobutyl-Nα-(4-methylbenzenesulfonyl)-Nε-benzyloxycarbonyl-L-lysine Benzyl Ester] | > 1250 nM | 
19 | Cc1ccc(S(=O)(=O)N(Cc2ccccc2)[C@@H](CCCCNC(=O)OCC2c3ccccc3-c3ccccc32)C(=O)O)cc1 [Compound 40, Nα-Benzyl-Nα-(4-methylbenzenesulfonyl)-Nε-(9-fluorenylmethoxycarbonyl)-L-lysine] | 19.6 nM | 
20 | CC(C)CN([C@@H](CCCCNC(=O)OCC1c2ccccc2-c2ccccc21)C(=O)O)S(=O)(=O)c1ccc(N)cc1 [Compound 44, Nα-(4-Aminobenzenesulfonyl)-Nα-isobutyl-Nε-(9-fluorenylmethoxycarbonyl)-L-lysine] | 2.1 nM | 
21 | Nα-Isobutyl-Nα-(4-methylbenzenesulfonyl)-Nε-(9-fluorenylmethoxycarbonyl)-L-lysine Methyl Ester [Compound 123] | > 1250 nM | 
22 | CC(C)CN(C(CCCCNC(=O)OCc1ccccc1)C(=O)O)S(=O)(=O)c1ccc(I)cc1 (racemic) [Compound 48, Nα-Isobutyl-Nα-(4-iodobenzenesulfonyl)-Nε-benzyloxycarbonyl-DL-lysine] | > 100 nM | 
23 | CC(C)(C)OC(=O)N[C@@H](CCCCNC(=O)OCC1c2ccccc2-c2ccccc21)C(=O)O [Compound 138] |  | Ki (Ki (nM)): > 200 nM
24 | Nα-Isobutyl-Nα-(4-methylbenzenesulfonyl)-Nε-phenoxyacetyl-L-lysine [Compound 203] | 16000 nM | 
25 | CC(C)CN([C@@H](CCCCNC(=O)C=Cc1cccc([N+](=O)[O-])c1)C(=O)O)S(=O)(=O)c1ccc([N+](=O)[O-])cc1 [Compound 108, Nα-Isobutyl-Nα-(4-nitrobenzenesulfonyl)-Nε-(3-nitrocinnamoyl)-L-lysine] |  | Ki (Ki (nM), fluorometric FRET assay, recombinant HIV-1 protease, pH 4.7, 31° C.): > 300 nM
26 | Nc1ccccc1S(=O)(=O)N[C@@H](CCCCNC(=O)OCC1c2ccccc2-c2ccccc21)C(=O)O [Compound 105, Nα-(2-Aminobenzenesulfonyl)-Nε-(9-fluorenylmethoxycarbonyl)-L-lysine] | 16000 nM | 
27 | O=C(N[C@@H](CCCCNS(=O)(=O)c1ccc2ccccc2c1)C(=O)O)OCC1c2ccccc2-c2ccccc21 [Compound 32, Nε-(2-Naphthalenesulfonyl)-Nα-(9-fluorenylmethoxycarbonyl)-L-lysine] | 10000 nM | 
28 | CC(C)CN(C(CCCCNC(=O)OCc1ccccc1)C(=O)OCc1ccccc1)S(=O)(=O)C=Cc1ccccc1 (stereo not drawn) [Compound 76] | > 1250 nM | 
29 | COc1ccccc1/C=C/C(=O)NCCCC[C@@H](C(=O)O)N(CC(C)C)S(=O)(=O)c1ccc([N+](=O)[O-])cc1 [Compound 161, Nα-Isobutyl-Nα-(4-nitrobenzenesulfonyl)-Nε-(trans-2-methoxycinnamoyl)-L-lysine] | > 300 nM | 
30 | Cc1ccc(S(=O)(=O)N(CC(C)C)[C@@H](CCCCNC(=O)c2c[nH]c3ccccc23)C(=O)O)cc1 [Compound 87] | > 1250 nM | 

Source: patent publication US6455587B1 (priority 2000, dated 2002)
